Measured values as given in article PMC13249469, “High-throughput ligand diversification to discover chemical inducers of proximity” (Nature Chemical Biology, 2026).

Target: T1, CRBN (Cereblon) (Homo sapiens, UniProt Q96SW2)
T1 construct: CRBN–DDB1; with DDB1
Assay: competitive FP displacement of BODIPY-labelled IMiD probe, without ENL YEATS
Type: binding

IC50: 155 nM
Compound: O=C(COc1cccc2c1C(=O)N(C1CCC(=O)NC1=O)C2=O)NCCOCCOCCNS(=O)(=O)Nc1cccc(-c2cn3cc(C(=O)NC4CCC4)ccc3n2)c1 (stereo not shown) [SR-1114]
